Laboratory results from paper PMC7614687, “Modulation of the substrate specificity of the kinase PDK1 by distinct conformations of the full-length protein*” (Science signaling, 2023).

Assays:
[1] = molecular target: T1, His-PDK1_1-556 and GST-PDK1_360-556 (Homo sapiens, UniProt O15530); test: AlphaScreen PDK1 dimerization assay His-PDK1_1-556 / GST-PDK1_360-556; type: binding; conditions: Prestwick library screen hits; read-out: IC50, inhibition of PDK1 dimerization
T1 construct: made in house; host or cells: Sf9 insect cells (His-PDK1_1-556); HEK293 cells (GST-PDK1_360-556)
T1 sequence (O15530 1-556): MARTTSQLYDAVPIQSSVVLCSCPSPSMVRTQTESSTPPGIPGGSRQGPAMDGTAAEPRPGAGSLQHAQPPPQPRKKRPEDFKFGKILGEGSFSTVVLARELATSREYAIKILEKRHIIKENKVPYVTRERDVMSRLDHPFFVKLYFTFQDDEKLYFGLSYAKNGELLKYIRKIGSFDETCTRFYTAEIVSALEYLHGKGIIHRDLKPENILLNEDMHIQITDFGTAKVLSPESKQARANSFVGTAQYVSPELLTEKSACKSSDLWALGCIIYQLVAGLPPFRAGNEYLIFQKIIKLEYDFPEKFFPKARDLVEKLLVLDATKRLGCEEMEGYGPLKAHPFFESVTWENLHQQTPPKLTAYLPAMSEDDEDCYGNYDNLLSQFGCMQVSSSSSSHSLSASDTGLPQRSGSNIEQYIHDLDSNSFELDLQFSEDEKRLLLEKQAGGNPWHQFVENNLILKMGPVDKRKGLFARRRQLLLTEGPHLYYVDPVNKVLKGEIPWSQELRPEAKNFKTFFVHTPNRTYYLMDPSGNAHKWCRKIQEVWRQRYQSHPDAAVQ
Procedure: (§1) The AlphaScreen® assay was performed following the general guidelines from the manufacturer (Perkin Elmer) ([29]). In short, the assay was performed in a final volume of 25 μl in white 384-well microtiter plates (Greiner) in a standard buffer containing 50 mM Tris-HCl (pH 7.4), 100 mM NaCl, 2 mM DTT, 0.01% (v/v) Tween-20 and 0.1% (w/v) BSA, with the addition of 5 μl of beads (anti-GST coated acceptor beads and streptavidin-coated donor beads; nickel chelate-coated acceptor beads and streptavidin-coated donor beads; or nickel chelate-coated acceptor beads and GSH-coated donor beads, 20 μg/ml final concentrations for each bead type). AlphaScreen assays for His-tagged proteins and GST-fusion proteins were performed using nickel chelate-coated acceptor beads and GSH-coated donor beads; alphascreen assays for His-tagged proteins and biotinylated molecules were performed using nickel chelate-coated acceptor beads and streptavidin-coated donor beads; alphascreen assays for GST-fusion proteins and biotinylated molecules were performed using anti-GST coated acceptor beads and streptavidin-coated donor beads (Perkin Elmer).
The conditions for each AlphaScreen assay were identified in cross-titration experiments for each interaction to choose the ideal pair of concentrations within the linear range of the interactions. […] His-PDK1 and GST-fusion protein in the presence or absence of the different compounds were incubated in the dark for 60 min at room temperature and the emission of light from the acceptor beads was measured in an EnVision reader (Perkin Elmer) or Spark plate reader (Tecan). […]

[2] = molecular target: T2, PDK1_50-359 (Homo sapiens, UniProt O15530); test: Differential scanning fluorimetry, thermal stability of PDK1_50-359 (catalytic domain); type: binding
T2 construct: His (N); made in house; host or cells: insect cells (stated for the crystallography batch)
T2 sequence (O15530 50-359): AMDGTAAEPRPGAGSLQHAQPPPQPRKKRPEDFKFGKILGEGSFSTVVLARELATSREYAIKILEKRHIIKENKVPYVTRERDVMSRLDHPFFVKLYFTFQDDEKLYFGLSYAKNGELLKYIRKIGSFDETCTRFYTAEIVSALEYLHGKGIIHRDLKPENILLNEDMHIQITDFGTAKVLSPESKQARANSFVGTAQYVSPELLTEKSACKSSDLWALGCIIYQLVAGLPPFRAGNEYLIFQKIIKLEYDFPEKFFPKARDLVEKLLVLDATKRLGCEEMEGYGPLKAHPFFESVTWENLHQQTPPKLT
Procedure: (§2) The thermal stability of PDK1 was assessed by monitoring the unfolding of PDK1 by the increase in the fluorescence of SYPRO Orange (Invitrogen) using a real-time PCR device (StepOnePlus, Applied Biosystems and BioRad CFX96) following a previously described protocol ([70]). The reactions were performed in a final volume of 10 μl in white 96-well PCR microtiter plates (Greiner) and contained 1 μM PDK1, 10 mM HEPES (pH 7.5), 150 mM NaCl, 1/1000 SYPRO Orange and 1 mM dithiothreitol. For valsartan, the assay buffer was modified to exclude NaCl. PIFtide or compounds (at a final DMSO concentration of 1%) were added to this reaction mixture. The temperature gradient was performed in steps of 0.3 °C in the range from 25 to 70 °C. To calculate the Tm values, data were exported to GraphPad Prism and curves fitted to a Boltzmann sigmoidal equation with an acceptable confidence interval of 95%. Statistical analysis was performed with Infostat software (http://www.infostat.com.ar) and GraphPad Prism by first verifying a normal distribution of pooled residuals (Shapiro-Wilks test) and homogeneity of variance (F test), and then performing a one-way ANOVA followed by the post hoc comparisons test indicated in each figure legend.

[3] = molecular target: T3, PDK1 (Homo sapiens, UniProt O15530); test: PDK1 activity assay with T308tide and [γ32P]ATP; type: biochemical; conditions: isolated catalytic domain
T3 construct: made in house; host or cells: HEK293 (GST fusion) or Sf9 insect cells (His form)
T3 sequence (O15530 1-359): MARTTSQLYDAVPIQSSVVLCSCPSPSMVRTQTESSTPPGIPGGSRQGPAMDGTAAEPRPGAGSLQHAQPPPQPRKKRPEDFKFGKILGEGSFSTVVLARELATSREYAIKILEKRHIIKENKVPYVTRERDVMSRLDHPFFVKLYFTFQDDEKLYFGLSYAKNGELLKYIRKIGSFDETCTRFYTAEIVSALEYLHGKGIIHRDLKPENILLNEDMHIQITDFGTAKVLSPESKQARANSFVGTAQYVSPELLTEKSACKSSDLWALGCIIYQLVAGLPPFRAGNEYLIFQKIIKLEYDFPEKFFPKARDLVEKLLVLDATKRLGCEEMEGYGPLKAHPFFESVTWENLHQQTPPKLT
Procedure: The PDK1 activity assay using T308tide as a substrate was performed essentially as previously described ([18], [28], [54]). In brief, the assay was performed in a 20 μl format containing 50 mM Tris pH 7.5, 0.05 mg/ml BSA, 0.1% ß-mercaptoethanol, 10 mM MgCl2, 100 μM [γ^32P]ATP (5-50 cpm/pmol), 0.003% Brij, 150-500 ng PDK1, and T308tide (0.3 mM) at room temperature. The assay was performed in 96 well plated and stopped by the addition of 5 μl of 0.1 % phosphoric acid. 4 μl aliquots were spotted on p81 phosphocellulose papers (Whatmann) using ep motion 5070 (Eppendorf). The phosphocellulose papers were washed in 0.01% phosphoric acid, dried, and exposed using PhosphoImager (FLA-9000 Starion). Data were analyzed with ImageQuant software (Fujifilm). Activity measurements were performed in technical duplicates or triplicates with less than 10% difference between replicates. Experiments were repeated at least twice. The activity measurements of PDK1 towards GS-022 and GS-023 were performed similarly, with the GS-peptides replacing T308tide at the indicated concentrations. GS-022 and GS-023 have features consistent with the loose characteristics disclosed for the peptide Ser/Thr 07, ((R/K)1-3(X)0-2 (S/T) (X)0-2(R/K)1-3, where X is any residue) used by the commercial “PDK1 Direct” assay.

[4] = molecular target: T4, PDK1_1-556 (Homo sapiens, UniProt O15530); test: Differential scanning fluorimetry, thermal stability of PDK1_1-556; type: binding
T4 construct: effect of HYG8 on the thermal stability (ΔTm) of PDK1_1-556 (H) and PDK1_50-359 (I); His (N); made in house; host or cells: Sf9 insect cells (baculovirus)
T4 sequence (O15530 1-556): T1 sequence (O15530 1-556)
Procedure: as §2

[5] = molecular target: T5, GST-PDK1_1-556 (Homo sapiens, UniProt O15530); test: AlphaScreen GST-PDK1_1-556 / biotin-PIFtide interaction; type: binding
T5 construct: made in house; host or cells: HEK293 cells (transient transfection of pEBG2T); peptide synthesized by Pepscan
T5 sequence (O15530 1-556): T1 sequence (O15530 1-556)
Procedure: as §1
The interaction between GST-PDK1_1-556 and biotin-PIFtide was performed as described previously ([29], [32]) in the standard buffer, but the bead concentration was lowered to 15 μg/ml.

CCCCC(=O)N(Cc1ccc(-c2ccccc2-c2nnn[nH]2)cc1)[C@H](C(=O)O)C(C)C [valsartan, reference compound]
IC50 [1]: 32 µM | effect on thermal stability of PDK1_50-359 (catalytic domain) [2]: less stabilization | effect on activity of the isolated catalytic domain of PDK1 toward T308tide [3]: modestly increased | ΔTm at 50 µM ([4]; 50 μM, buffer without NaCl): 2.2 °C | effect on temperature stability of the PDK1-HYG8 complex ([4]; in presence of HYG8): did not further enhance | effect on PDK1-PIFtide interaction [5]: inhibited
